# Assays:
# NOTCH1-induced T-ALL = experiment: Mouse model of Notch-ICN (NOTCH1)-induced T-ALL, adoptive transfer of transduced HPCs; assay type: in vivo; settings: HPCs expressing NOTCH1-ICN plus miRNA or shRNA transplanted into irradiated recipients
# Experimental: Can miR-19 drive the development of lymphatic malignancies in vivo? Based on the miR-19 expression and translocation data, miR-19 was assessed in a mouse model of T-ALL (Pear, et al., 1996). Briefly, most cases of T-ALL carry mutations in the Notch1 gene, and, like the […] translocation, these generate the constitutively active intracellular domain of NOTCH1 (Notch-ICN) (Weng, et al., 2004). To test miR-19's ability to promote Notch-ICN-induced T-ALL in vivo, HPCs were adoptively transferred into irradiated recipients (FIG. 3d). […] At the same time, 80% of the mice receiving HPCs expressing only Notch-ICN remained disease free (p=0.0003) (FIG. 3e).
# The mouse models of Notch1-induced T-ALL and the EμMyc lymphoma based on adoptive transfer of retrovirally transduced HPCs have been reported (Pear, et al., 1996), (Wendel, et al., 2004). Data were analyzed in Kaplan-Meier format using the log-rank (Mantel-Cox) test for statistical significance. The p53 loss of heterozygosity polymerase chain reaction (LOH PCR) and immunophenotyping by surface marker analysis were as described (Wendel, et al., 2004).
# A murine model of NOTCH1-induced T-ALL was used to directly test the oncogenic potential of the most promising miRNAs in vivo. Briefly, HPCs were transduced with NOTCH1 together with either empty vector or an miRNA and transplanted into irradiated, syngeneic recipients. Animals were monitored for leukemia onset by regular blood counts (FIG. 22a). […] Typically, animals receiving HPCs transduced with these miRNAs develop an acute leukemia by 75 days, while >80% of vector controls or animals receiving miR-30 (n=5, p=0.15) remain disease free at this time (FIG. 22b). Based on the in vitro screen and prediction, additional miRNAs were tested. […] Thus, miR-19b, miR-20a, miR-26a, miR-223 and also the less abundant miR-27a and miR-148/152 behave as oncogenes in a murine T-ALL model.
# The mouse T-ALL model has been reported (Pear, et al., 1996), (Wendel, et al., 2004). Data were analyzed in Kaplan-Meier format using the log-rank (Mantel-Cox) test for statistical significance. […]
# [1] = tested on: 3′UTR of Pten, Ppp2r5e, Prkaa1 and Bim; experiment: Reporter assay for 3′UTR repression by miR-19; assay type: cell-based; settings: wild type vs mutated miR-19 binding sites
# Excerpt: FIG. 14. Reporter assay for 3′ untranslated region (3′UTR) repression by miR-19. The 3′UTR of the indicated genes was subcloned into a dual luciferase reporter construct (pSiCheck2) and inhibition of the 3′UTR by miR-19 is indicated as mean±SD ratio of Renila to Firefly luciferase activity (RLuc/Luc). WT indicates the wild type 3′UTR. M indicates the 3′UTR where the miR-19 binding site has been mutated. In the case of Pten, one site (M1) or both sites (M1+M2) were mutated [* indicates significant (p<0.05) changes; ** indicates non-significant (p>0.05) changes.]
# The Dock5, Ppp2r5e, Prkaa1, and Bim 3′-UTR fragments were generated by PCR and cloned into the psi-CHECK-2 vector (Promega). The assays were performed as described (Xiao, et al., 2008). Binding site mutants were generated by site-directed mutagenesis.
# [2] = tested on: Pten, Ppp2r5e, Prkaa1 and Bim mRNA; experiment: qRT-PCR of miR-19 target genes in FL5-12 cells; assay type: cell-based; settings: FL5-12 cells and murine T-ALL samples
# Excerpt: Total RNA and miRNA-enriched RNA were extracted from cells and tumor samples using Allprep DNA/RNA/Protein Kits (Qiagen) and miRNeasy Mini Kits (Qiagen), respectively. Pathological diagnosis was by expert hematopathologists at Weill Cornell Medical College. cDNA synthesis and qRT-PCR and analysis by the ΔΔ Ct method were as described (Mavrakis, et al., 2008). TaqMan Gene Expression Assays were used for Bcl2L11 (Mm00437796_m1), Dock5 (Mm00555757_m1), FoxO1 (Mm00490672_m1), FoxO3 (Mm01185722_m1), Ppp2r5e (Mm00803759_m1), Prkaa1 (Mm01296695_m1) and Pten (Mm01212532_m1). Mouse GAPD (GAPDH) (4352932) and miR-19b (000396) were from Applied Biosystems. Expression was normalized to RNU6B (001093, Applied Biosystems).
# [3] = tested on: PPP2R5E, PRKAA1, BIM, PTEN, Bnip3, phosphorylated S6; experiment: Immunoblot on lysates of transduced FL5-12 cells; assay type: cell-based, murine
# Experimental: Immunoblots were performed from whole cell lysates as described (Wendel, et al., 2004). Briefly, 50 μg of protein/sample were resolved on SDS-PAGE gels and transferred to Immobilon-P-membranes (Millipore). Antibodies were against Prkaa1 (2532, 1:1000, Cell Signaling), Bim/Bcl2L11 (AAP-330, 1:1000, Assay Designs), FoxO1 (94545, 1:1000, Cell Signaling), FoxO3a (9467, 1:1000, Cell Signaling) Phospho-FoxO3a (94665, 1:1000, Cell Signaling), Ppp2r5e (NB 100-845, NOVUS), Pten (9559, 1:1000, Cell Signaling), tubulin (1:5000; Sigma, B-5-1-2), actin (1:5000; Sigma, AC-15), Bnip3 (3769, 1:1000, Cell Signaling), phosphorylated S6 (2215, 1:1000, Cell Signaling), phosphorylated Akt (4058, 1:1000, Cell Signaling) and Dock5 [a generous gift from Alan Hall (MSKCC)]. Enhanced chemiluminescence was used for detection (ECL, Amersham).
substance,measurement,setting,value
"miR-19: miRNA of the 17˜92 cluster, UGUGCAAAUCCAUGCAAAACUGA (SEQ ID NO: 2); seed family in Table 3 (expressed or natural sequence; listed as Homo sapiens)",leukemia onset / leukemia-free survival,NOTCH1-induced T-ALL,rapidly succumbed to T-ALL
same,leukemia onset / leukemia-free survival,NOTCH1-induced T-ALL; listed as miR-19b,disease acceleration
same,3′UTR inhibition (RLuc/Luc),[1],direct 3′ untranslated region (UTR) inhibition via the miR-19 binding sites
same,"reductions in the mRNA levels of Pten, Ppp2r5r, Prkaa1 and Bim",[2],up to 2 ×
same,Bnip3 protein,[3]; FL5-12 cells,neither miR-19 nor the antagomir had an effect on Bnip3
same,PTEN protein,[3]; FL5-12 cells,no detectable effect on PTEN protein
same,miR-19 target protein levels,[3]; FL5-12 cells,"clear reduction in PPP2R5E, PRKAA1, and BIM"
same,ribosomal S6 phosphorylation,[3]; FL5-12 cells withdrawn from IL3 for 12 hours,directly activated ribosomal S6 phosphorylation

# — patent US9624491B2, “Methods and compositions for the detection and treatment of cancer involving miRNAs and miRNA inhibitors and targets” (Memorial Sloan Kettering Cancer Center, priority 2010, dated 2017)
